# Columns and labels:
# [1] = DRUGMATRIX: Purinergic P2X radioligand binding (ligand: [3H] alpha, beta-Methylene-ATP); format: cell membranes, Oryctolagus cuniculus, New Zealand albino, Urinary bladder, Membrane; settings: Not Active = under 50% inhibition at 10 µM
# Acetylcholinesterase = Acetylcholinesterase (Homo sapiens, UniProt P22303); assay: DRUGMATRIX: Acetylcholinesterase enzyme inhibition (substrate: acetylthiocholine); format: cell-based, HEK293; settings: Not Active = under 50% inhibition at 10 µM
# Cytochrome P450 2C19 = Cytochrome P450 2C19 (Homo sapiens, UniProt P33261); settings: bti-tn-5b1-4; further: in other assays of this panel Not Active means under 50% inhibition at 10 µM
# [2] = DRUGMATRIX: Phorbol Ester radioligand binding (ligand: [3H] PDBu); format: cell membranes, Mus musculus, ICR, Brain, Membrane; settings: Not Active = under 50% inhibition at 10 µM
# Histamine H2 receptor = Histamine H2 receptor (Homo sapiens, UniProt P25021); format: cell membranes, CHO-K1, Membrane; settings: cho-k1; further: in other assays of this panel Not Active means under 50% inhibition at 10 µM
# [3] = molecular target: Beta-1 adrenergic receptor (Homo sapiens, UniProt P08588); assay: DRUGMATRIX: Adrenergic beta1 radioligand binding (ligand: [125I] Cyanopindolol); format: cell membranes, CHO-K1, Membrane; settings: cho-k1; Not Active = under 50% inhibition at 10 µM
# Beta-1 adrenergic receptor, sequence (P08588 whole entry): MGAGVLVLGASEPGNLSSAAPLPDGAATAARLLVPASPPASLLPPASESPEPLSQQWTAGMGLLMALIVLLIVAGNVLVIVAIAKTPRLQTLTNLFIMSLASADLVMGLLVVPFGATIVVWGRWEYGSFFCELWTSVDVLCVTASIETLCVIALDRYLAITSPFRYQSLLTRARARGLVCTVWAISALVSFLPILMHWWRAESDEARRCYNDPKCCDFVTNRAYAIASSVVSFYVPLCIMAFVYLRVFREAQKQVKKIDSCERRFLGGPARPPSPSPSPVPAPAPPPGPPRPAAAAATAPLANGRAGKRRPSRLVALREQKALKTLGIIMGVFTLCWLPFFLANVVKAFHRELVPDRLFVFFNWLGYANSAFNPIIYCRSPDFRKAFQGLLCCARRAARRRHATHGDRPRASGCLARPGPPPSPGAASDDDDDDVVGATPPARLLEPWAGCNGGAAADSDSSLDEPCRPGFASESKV
# Acetylcholinesterase, sequence (P22303 whole entry): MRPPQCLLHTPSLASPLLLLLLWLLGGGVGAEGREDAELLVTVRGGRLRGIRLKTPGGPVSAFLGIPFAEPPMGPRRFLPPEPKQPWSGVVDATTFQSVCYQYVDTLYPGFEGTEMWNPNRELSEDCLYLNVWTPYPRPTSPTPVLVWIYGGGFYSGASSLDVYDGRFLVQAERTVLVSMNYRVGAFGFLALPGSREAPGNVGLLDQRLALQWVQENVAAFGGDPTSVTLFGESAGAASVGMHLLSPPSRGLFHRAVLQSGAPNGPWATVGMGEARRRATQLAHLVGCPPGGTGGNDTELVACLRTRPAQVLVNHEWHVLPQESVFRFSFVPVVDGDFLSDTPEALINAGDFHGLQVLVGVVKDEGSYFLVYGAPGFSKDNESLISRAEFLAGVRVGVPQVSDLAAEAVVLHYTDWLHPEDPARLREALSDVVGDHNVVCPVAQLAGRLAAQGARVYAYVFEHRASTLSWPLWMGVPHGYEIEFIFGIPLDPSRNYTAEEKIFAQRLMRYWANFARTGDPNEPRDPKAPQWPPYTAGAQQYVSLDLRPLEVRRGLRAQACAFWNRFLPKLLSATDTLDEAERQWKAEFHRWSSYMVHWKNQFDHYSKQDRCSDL
# Cytochrome P450 2C19, sequence (P33261 whole entry): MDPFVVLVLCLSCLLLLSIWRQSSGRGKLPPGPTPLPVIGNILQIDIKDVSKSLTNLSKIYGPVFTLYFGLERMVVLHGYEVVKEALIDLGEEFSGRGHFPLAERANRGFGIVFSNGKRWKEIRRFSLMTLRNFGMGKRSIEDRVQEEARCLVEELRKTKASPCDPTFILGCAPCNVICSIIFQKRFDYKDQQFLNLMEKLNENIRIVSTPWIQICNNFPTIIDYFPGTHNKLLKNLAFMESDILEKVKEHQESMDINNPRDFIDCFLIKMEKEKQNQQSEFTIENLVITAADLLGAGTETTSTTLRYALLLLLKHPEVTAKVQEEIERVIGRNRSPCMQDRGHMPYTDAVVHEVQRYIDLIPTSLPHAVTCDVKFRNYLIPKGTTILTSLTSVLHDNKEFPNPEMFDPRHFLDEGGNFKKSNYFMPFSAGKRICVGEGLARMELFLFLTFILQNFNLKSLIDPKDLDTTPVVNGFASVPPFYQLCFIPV
# Histamine H2 receptor, sequence (P25021 whole entry): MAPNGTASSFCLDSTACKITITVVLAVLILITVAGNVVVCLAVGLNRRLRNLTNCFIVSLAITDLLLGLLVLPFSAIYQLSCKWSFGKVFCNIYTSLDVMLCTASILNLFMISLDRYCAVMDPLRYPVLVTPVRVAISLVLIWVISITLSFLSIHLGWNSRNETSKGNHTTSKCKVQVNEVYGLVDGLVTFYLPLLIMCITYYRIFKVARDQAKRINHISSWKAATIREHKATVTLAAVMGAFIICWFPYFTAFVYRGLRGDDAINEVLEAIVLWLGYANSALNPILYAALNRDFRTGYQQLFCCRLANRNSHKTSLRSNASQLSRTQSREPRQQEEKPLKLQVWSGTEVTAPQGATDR
smiles,measurement,setting,value
CC[C@@]1(O)C[C@H](O[C@H]2C[C@H](N(C)C)[C@H](O[C@H]3C[C@H](O)[C@H](O[C@H]4CCC(=O)[C@H](C)O4)[C@H](C)O3)[C@H](C)O2)c2c(cc3c(c2O)C(=O)c2c(O)cccc2C3=O)[C@H]1C(=O)OC [ACLARUBICIN],IC50,[1],Not Active
same,Ki,[1],Not Active
same,IC50,Acetylcholinesterase; hek293,Not Active
same,IC50,Cytochrome P450 2C19,Not Active
same,Ki,Cytochrome P450 2C19,Not Active
same,IC50,[2],Not Active
same,Ki,[2],Not Active
same,IC50,Histamine H2 receptor,Not Active
same,IC50,[3],Not Active
Nc1nc2c(ncn2COCCO)c(=O)[nH]1 [ACYCLOVIR],IC50,[1],Not Active
same,Ki,[1],Not Active
same,IC50,Acetylcholinesterase; hek293,Not Active
same,IC50,Cytochrome P450 2C19,Not Active
same,Ki,Cytochrome P450 2C19,Not Active
same,IC50,[2],Not Active
same,Ki,[2],Not Active
same,IC50,Histamine H2 receptor,Not Active
same,IC50,[3],Not Active
Cc1c(C)c2c(c(C)c1O)CC[C@@](C)(CCC[C@H](C)CCC[C@H](C)CCCC(C)C)O2 [ALPHA-TOCOPHEROL],IC50,[1],Not Active
same,Ki,[1],Not Active
same,IC50,Acetylcholinesterase; hek293,Not Active
same,IC50,Cytochrome P450 2C19,Not Active
same,Ki,Cytochrome P450 2C19,Not Active
same,IC50,[2],Not Active
same,Ki,[2],Not Active
same,IC50,Histamine H2 receptor,Not Active
same,IC50,[3],Not Active
NCCCCCC(=O)O [AMINOCAPROIC ACID],IC50,[1],Not Active
same,Ki,[1],Not Active
same,IC50,Acetylcholinesterase; hek293,Not Active
same,IC50,Cytochrome P450 2C19,Not Active
same,Ki,Cytochrome P450 2C19,Not Active
same,IC50,[2],Not Active
same,Ki,[2],Not Active
same,IC50,Histamine H2 receptor,Not Active
same,IC50,[3],Not Active
CCC1(c2ccc(N)cc2)CCC(=O)NC1=O (centres undefined) [AMINOGLUTETHIMIDE],IC50,[1],Not Active
same,Ki,[1],Not Active
same,IC50,Acetylcholinesterase; hek293,Not Active
same,IC50,Cytochrome P450 2C19,Not Active
same,Ki,Cytochrome P450 2C19,Not Active
same,IC50,[2],Not Active
same,Ki,[2],Not Active
same,IC50,Histamine H2 receptor,Not Active
same,IC50,[3],Not Active
Cc1ccc(/N=C/N(C)/C=N/c2ccc(C)cc2C)c(C)c1 [AMITRAZ],IC50,[1],Not Active
same,Ki,[1],Not Active
same,IC50,Acetylcholinesterase; hek293,Not Active
same,IC50,Cytochrome P450 2C19,Not Active
same,Ki,Cytochrome P450 2C19,Not Active
same,IC50,[2],Not Active
same,Ki,[2],Not Active
same,IC50,Histamine H2 receptor,Not Active
same,IC50,[3],Not Active
CCOC(=O)C1=C(COCCN)NC(C)=C(C(=O)OC)C1c1ccccc1Cl (centres undefined) [AMLODIPINE],IC50,[1],Not Active
same,Ki,[1],Not Active
same,IC50,Acetylcholinesterase; hek293,Not Active
same,IC50,Cytochrome P450 2C19,Not Active
same,Ki,Cytochrome P450 2C19,Not Active
same,IC50,[2],Not Active
same,Ki,[2],Not Active
same,IC50,Histamine H2 receptor,Not Active
same,IC50,[3],Not Active
COc1ccc(C[C@H]2NC[C@H](O)[C@H]2OC(C)=O)cc1 [ANISOMYCIN],IC50,[1],Not Active
same,Ki,[1],Not Active
same,IC50,Acetylcholinesterase; hek293,Not Active
same,Ki,Acetylcholinesterase; hek293,Not Active
same,IC50,Cytochrome P450 2C19,Not Active
same,Ki,Cytochrome P450 2C19,Not Active
same,IC50,[2],Not Active
same,Ki,[2],Not Active
same,IC50,Histamine H2 receptor,Not Active
same,Ki,Histamine H2 receptor,Not Active
same,IC50,[3],Not Active
same,Ki,[3],Not Active
CN(C)C(=O)Oc1cc(OC(=O)N(C)C)cc(C(O)CNC(C)(C)C)c1 (centres undefined) [BAMBUTEROL],IC50,[1],Not Active
same,Ki,[1],Not Active
same,IC50,Acetylcholinesterase; hek293,Not Active
same,IC50,Cytochrome P450 2C19,Not Active
same,Ki,Cytochrome P450 2C19,Not Active
same,IC50,[2],Not Active
same,Ki,[2],Not Active
same,IC50,Histamine H2 receptor,Not Active
same,IC50,[3],Not Active
c1ccc2c(c1)c1cccc3ccc4cccc2c4c31 [BENZO[E]PYRENE],IC50,[1],Not Active
same,Ki,[1],Not Active
same,IC50,Acetylcholinesterase; hek293,Not Active
same,IC50,Cytochrome P450 2C19,Not Active
same,Ki,Cytochrome P450 2C19,Not Active
same,IC50,[2],Not Active
same,Ki,[2],Not Active
same,IC50,Histamine H2 receptor,Not Active
same,IC50,[3],Not Active
CC(C)C(Br)C(=O)NC(N)=O (centres undefined) [BROMISOVALUM],IC50,[1],Not Active
same,Ki,[1],Not Active
same,IC50,Acetylcholinesterase; hek293,Not Active
same,IC50,Cytochrome P450 2C19,Not Active
same,Ki,Cytochrome P450 2C19,Not Active
same,IC50,[2],Not Active
same,Ki,[2],Not Active
same,IC50,Histamine H2 receptor,Not Active
same,IC50,[3],Not Active
CCCC1O[C@@H]2C[C@H]3[C@@H]4CCC5=CC(=O)C=C[C@]5(C)[C@H]4[C@@H](O)C[C@]3(C)[C@]2(C(=O)CO)O1 (some centres undefined) [BUDESONIDE],IC50,[1],Not Active
same,Ki,[1],Not Active
same,IC50,Acetylcholinesterase; hek293,Not Active
same,IC50,Cytochrome P450 2C19,Not Active
same,Ki,Cytochrome P450 2C19,Not Active
same,IC50,[2],Not Active
same,Ki,[2],Not Active
same,IC50,Histamine H2 receptor,Not Active
same,IC50,[3],Not Active
CN(Cc1ccc(C(C)(C)C)cc1)Cc1cccc2ccccc12 [BUTENAFINE],IC50,[1],Not Active
same,Ki,[1],Not Active
same,IC50,Acetylcholinesterase; read-out: IC50,6.91 µM
same,IC50,Cytochrome P450 2C19,Not Active
same,Ki,Cytochrome P450 2C19,Not Active
same,IC50,[2],Not Active
same,Ki,[2],Not Active
same,IC50,Histamine H2 receptor,Not Active
same,IC50,[3],Not Active
C[C@H](CS)C(=O)N1CCC[C@H]1C(=O)O [CAPTOPRIL],IC50,[1],Not Active
same,Ki,[1],Not Active
same,IC50,Acetylcholinesterase; hek293,Not Active
same,IC50,Cytochrome P450 2C19,Not Active
same,Ki,Cytochrome P450 2C19,Not Active
same,IC50,[2],Not Active
same,Ki,[2],Not Active
same,IC50,Histamine H2 receptor,Not Active
same,IC50,[3],Not Active
